We go through 19 molecules from US11434242B2, “Dopamine-b-hydroxylase inhibitors” (BIAL-PORTELA & Cª, S.A., priority 2017, dated 2022).

Marks after values point to notes of the source that are not given here.

In the test the target is T1, Dopamine beta hydroxylase (Homo sapiens, UniProt P09172).
T1 construct: 125 μl of plasma; tissue Instituto Português do Sangue Transplantação; host or cells: human plasma from healthy donors
T1 sequence (P09172 40-617 limits assumed): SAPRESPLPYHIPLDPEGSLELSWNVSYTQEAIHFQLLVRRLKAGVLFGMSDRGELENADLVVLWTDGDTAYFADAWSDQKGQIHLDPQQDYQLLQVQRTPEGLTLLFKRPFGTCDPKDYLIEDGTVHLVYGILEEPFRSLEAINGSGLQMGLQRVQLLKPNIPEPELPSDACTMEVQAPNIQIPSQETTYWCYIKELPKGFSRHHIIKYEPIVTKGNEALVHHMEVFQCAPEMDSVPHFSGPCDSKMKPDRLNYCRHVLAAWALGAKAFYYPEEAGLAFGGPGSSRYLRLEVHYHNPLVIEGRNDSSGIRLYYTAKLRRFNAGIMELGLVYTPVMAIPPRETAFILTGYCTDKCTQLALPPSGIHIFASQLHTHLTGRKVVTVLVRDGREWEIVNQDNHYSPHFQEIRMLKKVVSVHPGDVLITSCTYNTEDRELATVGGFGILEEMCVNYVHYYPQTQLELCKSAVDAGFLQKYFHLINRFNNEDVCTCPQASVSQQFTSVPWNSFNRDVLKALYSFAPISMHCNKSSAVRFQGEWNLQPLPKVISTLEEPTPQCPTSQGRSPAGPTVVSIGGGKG
The test can be described thus: Dopamine beta hydroxylase activity in human plasma. The format is biochemical. The note with it: for Plasma (0.1 μM), activity in % of control / Plasma (0.1 μM), activity in % of control, re-test (asterisked): inhibitor 0.1 μM; for Plasma (1 μM), activity in % of control: inhibitor 1 μM; for Plasma (0.01 μM), activity in % of control / Plasma (0.01 μM), activity in % of control, re-test (asterisked): inhibitor 0.01 μM; for Plasma (0.01 μM), activity in % of control, re-test (asterisked) / Plasma (0.1 μM), activity in % of control, re-test (asterisked): re-tested under the same experimental conditions, asterisked data believed to be correct. The procedure, abridged: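 Healthy-donor human plasma pre-incubated 10 min at 37° C with compound at final 10, 100 or 1000 nM in pH 5.0 acetate buffer with ascorbate, fumarate, pargyline, N-ethylmaleimide, catalase and copper sulfate. Tyramine substrate then added for 45 min; octopamine formed was isolated by SCX cartridge, periodate-converted and read at 330 nm; activity given as % control.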

`Cl.O=C(Cc1[nH]c(=S)n2c1C[C@@H](c1c(F)ccc(Cl)c1F)C2)NCc1cccnc1` [Example 109, (S)-2-(6-(3-chloro-2,6-difluorophenyl)-3-thioxo-2,5,6,7-tetrahydro-3H-pyrrolo[1,2-c]imidazol-1-yl)-N-(pyridin-3-ylmethyl)acetamide Hydrochloride]: the “Plasma (0.1 μM), activity in % of control” value is on record as 5.4 % of control and the “Plasma (1 μM), activity in % of control” value was 1.5 % of control.
On the same counts, the results for `O=C(Cc1[nH]c(=S)n2c1C[C@@H](c1c(F)ccc(Br)c1F)C2)NCCO` [Example 93, (S)-2-(6-(3-bromo-2,6-difluorophenyl)-3-thioxo-2,5,6,7-tetrahydro-3H-pyrrolo[1,2-c]imidazol-1-yl)-N-(2-hydroxyethyl)acetamide] are 32.1 % of control and 1.0 % of control.
For the molecule `Cn1c(CC(=O)N[C@@H]2CCOC2)c2n(c1=S)C[C@H](c1c(F)ccc(Cl)c1F)C2` [Example 250, 2-((S)-6-(3-chloro-2,6-difluorophenyl)-2-methyl-3-thioxo-2,5,6,7-tetrahydro-3H-pyrrolo[1,2-c]imidazol-1-yl)-N—((R)-tetrahydrofuran-3-yl)acetamide], the “Plasma (0.01 μM), activity in % of control” value is given as 46.1 % of control and the “Plasma (0.1 μM), activity in % of control” value is reported as 7.3 % of control.
On the same counts, the results for `Cn1c(CC(=O)NC2COC2)c2n(c1=S)C[C@H](c1c(F)ccc(Br)c1F)C2` [Example 413, (S)-2-(6-(3-bromo-2,6-difluorophenyl)-2-methyl-3-thioxo-2,5,6,7-tetrahydro-3H-pyrrolo[1,2-c]imidazol-1-yl)-N-(oxetan-3-yl)acetamide] are 42.4 % of control and 3.1 % of control.
Taken in the same sequence, the figures for `Cn1c(CC(=O)NC2(C#N)CC2)c2n(c1=S)C[C@@H](c1c(F)ccc(F)c1F)C2` [Example 254, (R)—N-(1-cyanocyclopropyl)-2-(2-methyl-3-thioxo-6-(2,3,6-trifluorophenyl)-2,5,6,7-tetrahydro-3H-pyrrolo[1,2-c]imidazol-1-yl)acetamide] were 81.4 % of control and 62.2 % of control.
In the case of `CS(=O)(=O)NC(=O)Cc1[nH]c(=S)n2c1C[C@H](c1cc(F)ccc1F)C2` [Example 24, (R)-2-(6-(2,5-difluorophenyl)-3-thioxo-2,5,6,7-tetrahydro-3H-pyrrolo[1,2-c]imidazol-1-yl)-N-(methylsulfonyl)acetamide], the “Plasma (0.1 μM), activity in % of control” value is recorded as 100.2 % of control and the “Plasma (1 μM), activity in % of control” value is on record as 45.6 % of control.
On to `O=C(Cc1[nH]c(=S)n2c1C[C@@H](c1c(F)ccc(Cl)c1F)C2)N1CCOCC1` [Example 363, (S)-2-(6-(3-chloro-2,6-difluorophenyl)-3-thioxo-2,5,6,7-tetrahydro-3H-pyrrolo[1,2-c]imidazol-1-yl)-1-morpholinoethan-1-one], for which the “Plasma (0.01 μM), activity in % of control” value was 89.5 % of control and the “Plasma (0.1 μM), activity in % of control” value was 20.8 % of control.
With `Cn1c(CC(=O)N2CC[C@@H](C#N)C2)c2n(c1=S)C[C@@H](c1c(F)ccc(F)c1F)C2` [Example 390, (R)-1-(2-((R)-2-methyl-3-thioxo-6-(2,3,6-trifluorophenyl)-2,5,6,7-tetrahydro-3H-pyrrolo[1,2-c]imidazol-1-yl)acetyl)pyrrolidine-3-carbonitrile], the “Plasma (0.01 μM), activity in % of control” value is given as 75.0 % of control and the “Plasma (0.1 μM), activity in % of control” value is 52.0 % of control.
On the same counts, the results for `CC(C)(C)OC(=O)N1CCC[C@@H]1CNC(=O)Cc1[nH]c(=S)n2c1C[C@@H](c1c(F)ccc(Br)c1F)C2` [Example 122, tert-butyl (R)-2-((2-((S)-6-(3-bromo-2,6-difluorophenyl)-3-thioxo-2,5,6,7-tetrahydro-3H-pyrrolo[1,2-c]imidazol-1-yl)acetamido)methyl)pyrrolidine-1-carboxylate] are 70.8 % of control and 13.0 % of control.
On the same counts, the results for `Cl.Fc1ccc(Br)cc1[C@]12C[C@H]1c1c(CCN3CCCC3)[nH]c(=S)n1C2` [Example 185, (5aS,6aR)-5a-(5-bromo-2-fluorophenyl)-1-(2-(pyrrolidin-1-yl)ethyl)-5,5a,6,6a-tetrahydrocyclopropa[3,4]pyrrolo[1,2-c]imidazole-3(2H)-thione hydrochloride] are 72.9 % of control and 30.9 % of control.
Taken in the same sequence, the figures for `CN(CCc1[nH]c(=S)n2c1[C@@H]1C[C@]1(c1cc(Br)ccc1F)C2)C1CCCC1.F` [Example 190, (5aS,6aR)-5a-(5-bromo-2-fluorophenyl)-1-(2-(cyclopentyl(methyl)amino)ethyl)-5,5a,6,6a-tetrahydrocyclopropa[3,4]pyrrolo[1,2-c]imidazole-3(2H)-thione hydrofluoride] were 68.6 % of control and 19.9 % of control.
As for `CN(C(=O)Cc1[nH]c(=S)n2c1C[C@@H](c1c(F)ccc(Br)c1F)C2)C1COC1` [Example 408, (S)-2-(6-(3-bromo-2,6-difluorophenyl)-3-thioxo-2,5,6,7-tetrahydro-3H-pyrrolo[1,2-c]imidazol-1-yl)-N-methyl-N-(oxetan-3-yl)acetamide], the “Plasma (0.01 μM), activity in % of control” value was 77.0 % of control and the “Plasma (0.1 μM), activity in % of control” value is 14.7 % of control.
On the same counts, the results for `Cn1c(CC(=O)N[C@@H]2CCOC2)c2n(c1=S)C[C@@]1(c3cc(Cl)ccc3F)C[C@@H]21` [Example 281, 2-((5aS,6aR)-5a-(5-chloro-2-fluorophenyl)-2-methyl-3-thioxo-2,3,5,5a,6,6a-hexahydrocyclopropa[3,4]pyrrolo[1,2-c]imidazol-1-yl)-N—((R)-tetrahydrofuran-3-yl)acetamide] are 107.9 % of control and 29.8 % of control.
On the same counts, the results for `Cn1c(CC(=O)N[C@@H]2CCOC2)c2n(c1=S)C[C@@]1(c3cc(Br)ccc3F)C[C@@H]21` [Example 279, 2-((5aS,6aR)-5a-(5-bromo-2-fluorophenyl)-2-methyl-3-thioxo-2,3,5,5a,6,6a-hexahydrocyclopropa[3,4]pyrrolo[1,2-c]imidazol-1-yl)-N—((R)-tetrahydrofuran-3-yl)acetamide] are 61.7 % of control and 15.7 % of control.
Taken in the same sequence, the figures for `Cn1c(CC(=O)Nc2cnsc2)c2n(c1=S)C[C@@H](c1c(F)ccc(F)c1F)C2` [Example 351, (R)—N-(isothiazol-4-yl)-2-(2-methyl-3-thioxo-6-(2,3,6-trifluorophenyl)-2,5,6,7-tetrahydro-3H-pyrrolo[1,2-c]imidazol-1-yl)acetamide] were 46.2 % of control and 16.5 % of control.
Take `Cn1c(CC(=O)N2CCCCC2)c2n(c1=S)C[C@@]1(c3cc(Br)ccc3F)C[C@@H]21` [Example 312, 2-((5aS,6aR)-5a-(5-bromo-2-fluorophenyl)-2-methyl-3-thioxo-2,3,5,5a,6,6a-hexahydrocyclopropa[3,4]pyrrolo[1,2-c]imidazol-1-yl)-1-(piperidin-1-yl)ethan-1-one]: the “Plasma (0.01 μM), activity in % of control” value is given as 84.8 % of control; the “Plasma (0.01 μM), activity in % of control, re-test (asterisked)” value was 67.6* % of control; the “Plasma (0.1 μM), activity in % of control” value was 51.7 % of control; the “Plasma (0.1 μM), activity in % of control, re-test (asterisked)” value is 15.0* % of control.
For `CN(C(=O)Cc1[nH]c(=S)n2c1C[C@H](c1c(F)ccc(Br)c1F)C2)C1CCOCC1` [Example 128, (R)-2-(6-(3-bromo-2,6-difluorophenyl)-3-thioxo-2,5,6,7-tetrahydro-3H-pyrrolo[1,2-c]imidazol-1-yl)-N-methyl-N-(tetrahydro-2H-pyran-4-yl)acetamide], the “Plasma (0.01 μM), activity in % of control” value was 98.1 % of control and the “Plasma (0.1 μM), activity in % of control” value was 29.7 % of control.
Taken in the same sequence, the figures for `Cn1c(CC(=O)NC2COC2)c2n(c1=S)C[C@@]1(c3cc(Br)ccc3F)C[C@@H]21` [Example 437, 2-((5aS,6aR)-5a-(5-bromo-2-fluorophenyl)-2-methyl-3-thioxo-2,3,5,5a,6,6a-hexahydrocyclopropa[3,4]pyrrolo[1,2-c]imidazol-1-yl)-N-(oxetan-3-yl)acetamide] were 62.7 % of control and 6.1 % of control.
`Cn1c(CC(=O)N[C@@H]2CCOC2)c2n(c1=S)C[C@@H](c1c(F)c(F)cc(F)c1F)C2` [Example 243]: the “Plasma (0.01 μM), activity in % of control” value is reported as 38.0 % of control; the “Plasma (0.01 μM), activity in % of control, re-test (asterisked)” value was 87.3* % of control; the “Plasma (0.1 μM), activity in % of control” value is 4.4 % of control; the “Plasma (0.1 μM), activity in % of control, re-test (asterisked)” value is listed as 37.6* % of control.
